Experimental data as given in patent US20140005268A1, “PHARMACEUTICAL COMPOSITION FOR TREATING OXIDATIVE STRESS-INDUCED PATHOLOGY AND USE THEREOF” (priority 2011, published 2014).

Test system: hemorrhoids (Goligher type I, II, III and IV)
Assay: Clinical test of rectally administered suppositories in volunteers with hemorrhoids (Goligher's classification)
Format: in vivo
Details: adult human beings of both genders, 20 to 80 years old, daily dosage as in Table 1, average ± standard error, n=20
Description: For such, various volunteers were randomly selected.
In short, volunteers, aging from 20 to 80 years old, were tested and observed for 28 days by rectally administering suppositories of 2 g each, containing the active ingredients in the indicated proportion: methionine (170 mg/day), cysteine (20 mg/day) and phenylalanine (10 mg/day) each.
The indicated values in the Table are average values in 20 experiments±standard errors (n=20).

SMILES | Bleeding inhibition after 72 h (%) | Relapse after 5 years (%)
N[C@@H](CS)C(=O)O [L-cysteine] | 10 ± 1% | 80 ± 8%
CSCC[C@H](N)C(=O)O [L-methionine] | 70 ± 7% | 15 ± 2%
N[C@@H](Cc1ccccc1)C(=O)O [L-phenylalanine] | 2 ± 1% | 90 ± 9%
